From patent publication US12077503B2, “Substituted cyclic amides and their use as herbicides” (FMC CORPORATION, priority 2015, dated 2024)

Assays:
Assay type in all cases: in vivo
[1] = system: sedge, umbrella (small-flower umbrella sedge, Cyperus difformis); test: Test B flooded paddy test; conditions: Flood, 250 g ai/ha; 0 to 100 scale where 0 is no effect and 100 is complete control; 13 to 15 d
Experimental: (§1) Plant species in the flooded paddy test selected from rice (Oryra sativa), sedge, umbrella (small-flower umbrella sedge, Cyperus difformis), ducksalad (Heteranthera limosa), and barnyardgrass (Echinochloa crus-galli) were grown to the 2-leaf stage for testing. At time of treatment, test pots were flooded to 3 cm above the soil surface, treated by application of test compounds directly to the paddy water, and then maintained at that water depth for the duration of the test. Treated plants and controls were maintained in a greenhouse for 13 to 15 d, after which time all species were compared to controls and visually evaluated. Plant response ratings, summarized in Table B, are based on a scale of 0 to 100 where 0 is no effect and 100 is complete control. A dash (-) response means no test result.

[2] = system: ducksalad (Heteranthera limosa); test: Test B flooded paddy test; conditions: Flood, 250 g ai/ha; 0 to 100 scale where 0 is no effect and 100 is complete control; 13 to 15 d
Experimental: as §1

[3] = system: rice (Oryra sativa); test: Test B flooded paddy test; conditions: Flood, 250 g ai/ha; 0 to 100 scale where 0 is no effect and 100 is complete control; 13 to 15 d
Experimental: as §1

[4] = system: barnyardgrass (Echinochloa crus-galli); test: Test B flooded paddy test; conditions: Flood, 250 g ai/ha; 0 to 100 scale where 0 is no effect and 100 is complete control; 13 to 15 d
Experimental: as §1

[5] = system: Kochia (Kochia scoparia); test: Test A preemergence; conditions: for Plant response rating, Kochia: 125 g ai/ha; for Kochia plant response rating (0 to 100 scale, 0 is no effect, 100 is complete control): visual injury approx. 10 d
Description: (§2) Seeds of plant species selected from barnyardgrass (Echinochloa crus-galli), Kochia (Kochia scoparia), ragweed (common ragweed, Ambrosia elatior), ryegrass, Italian (Italian ryegrass, Lolium multiflorum), crabgrass, large (Digitaria sanguinalis), giant foxtail (Setaria faberii), green foxtail (Setaria viridis), morningglory (Ipomoea spp.), pigweed (Amaranthus retroflexus), velvetleaf (Abutilon theophrasti), wheat (Triticum aestivum), and corn (Zea mays) were planted into a blend of loam soil and sand and treated preemergence with a directed soil spray using test chemicals formulated in anon-phytotoxic solvent mixture which included a surfactant.
(§3) At the same time, plants selected from these crop and weed species and also blackgrass (Alopecurus myosuroides), and Galium (catchweed bedstraw, Galium aparine) were planted in pots containing the same blend of loam soil and sand and treated with postemergence applications of test chemicals formulated in the same manner. Plants ranged in height from 2 to 10 cm and were in the one- to two-leaf stage for the postemergence treatment. Treated plants and untreated controls were maintained in a greenhouse for approximately 10 d, after which time all treated plants were compared to untreated controls and visually evaluated for injury. Plant response ratings, summarized in Table A, are based on a 0 to 100 scale where 0 is no effect and 100 is complete control. A dash (-) response means no test result.

[6] = system: ragweed (common ragweed, Ambrosia elatior); test: Test A preemergence; conditions: for Plant response rating, Ragweed: 125 g ai/ha; for Ragweed plant response rating (0 to 100 scale, 0 is no effect, 100 is complete control): visual injury approx. 10 d
Description: as §2, §3

[7] = system: giant foxtail (Setaria faberii); test: Test A preemergence; conditions: for Plant response rating, Foxtail, Giant: 125 g ai/ha; for Foxtail, Giant plant response rating (0 to 100 scale, 0 is no effect, 100 is complete control): visual injury approx. 10 d
Description: as §2, §3

[8] = system: pigweed (Amaranthus retroflexus); test: Test A preemergence; conditions: for Plant response rating, Pigweed: 125 g ai/ha; for Pigweed plant response rating (0 to 100 scale, 0 is no effect, 100 is complete control): visual injury approx. 10 d
Description: as §2, §3

[9] = system: barnyardgrass (Echinochloa crus-galli); test: Test A preemergence; conditions: for Plant response rating, Barnyardgrass: 125 g ai/ha; for Barnyardgrass plant response rating (0 to 100 scale, 0 is no effect, 100 is complete control): visual injury approx. 10 d
Description: as §2, §3

[10] = system: ryegrass, Italian (Italian ryegrass, Lolium multiflorum); test: Test A preemergence; conditions: for Plant response rating, Ryegrass, Italian: 125 g ai/ha; for Ryegrass, Italian plant response rating (0 to 100 scale, 0 is no effect, 100 is complete control): visual injury approx. 10 d
Description: as §2, §3

[11] = system: Kochia (Kochia scoparia); test: Test A postemergence
Description: as §2, §3

[12] = system: ragweed (common ragweed, Ambrosia elatior); test: Test A postemergence
Description: as §2, §3

[13] = system: giant foxtail (Setaria faberii); test: Test A postemergence
Description: as §2, §3

[14] = system: pigweed (Amaranthus retroflexus); test: Test A postemergence
Description: as §2, §3

[15] = system: blackgrass (Alopecurus myosuroides); test: Test A postemergence
Description: as §2, §3

[16] = system: barnyardgrass (Echinochloa crus-galli); test: Test A postemergence
Description: as §2, §3

[17] = system: corn (Zea mays); test: Test A postemergence
Description: as §2, §3

[18] = system: Galium (catchweed bedstraw, Galium aparine); test: Test A postemergence
Description: as §2, §3

[19] = system: wheat (Triticum aestivum); test: Test A postemergence
Description: as §2, §3

[20] = system: ryegrass, Italian (Italian ryegrass, Lolium multiflorum); test: Test A postemergence
Description: as §2, §3

[21] = preemergence, 0 to 100 scale (0 no effect, 100 complete control)
[22] = 125 g ai/ha, postemergence, visual injury rating on 0 to 100 scale (0 no effect, 100 complete control), approx. 10 d
[23] = 500 g ai/ha, postemergence, 0 to 100 scale, 0 no effect, 100 complete control
[24] = Preemergence, visual injury after approximately 10 d, 0 to 100 scale where 0 is no effect and 100 is complete control
[25] = 125 g ai/ha, postemergence, visual rating after approx. 10 d, 0 to 100 scale (0 no effect, 100 complete control)
[26] = Postemergence, 500 g ai/ha, 0 to 100 scale where 0 is no effect and 100 is complete control
[27] = Preemergence, 500 g ai/ha, 0 is no effect, 100 is complete control
[28] = Postemergence, 125 g ai/ha, visual injury, 0 to 100 scale (0 no effect, 100 complete control), approx. 10 d

O=C(Nc1ccccc1F)C1C(=O)N(c2ccccc2)CC1c1cccc(C(F)(F)F)c1 (stereo not drawn) [Compound 456]
Plant response rating, Sedge, Umbrella [1]: 0 | Plant response rating, Ducksalad [2]: 0 | Plant response rating, Rice [3]: 0 | Plant response rating, Barnyardgrass [4]: 0 | Plant response rating, Kochia [5, 21]: 0 | Kochia plant response rating (0 to 100 scale, 0 is no effect, 100 is complete control) ([5]; Preemergence, 500 g ai/ha): 0 | Plant response rating, Ragweed [6, 21]: 0 | Ragweed plant response rating (0 to 100 scale, 0 is no effect, 100 is complete control) ([6]; Preemergence, 500 g ai/ha): 0 | Plant response rating, Foxtail, Giant [7, 21]: 0 | Foxtail, Giant plant response rating (0 to 100 scale, 0 is no effect, 100 is complete control) ([7]; Preemergence, 500 g ai/ha): 0 | Plant response rating, Pigweed [8, 21]: 0 | Pigweed plant response rating (0 to 100 scale, 0 is no effect, 100 is complete control) ([8]; Preemergence, 500 g ai/ha): 0 | Plant response rating, Barnyardgrass [9, 21]: 0 | Barnyardgrass plant response rating (0 to 100 scale, 0 is no effect, 100 is complete control) ([9]; Preemergence, 500 g ai/ha): 0 | Plant response rating, Ryegrass, Italian [10, 21]: 0 | Ryegrass, Italian plant response rating (0 to 100 scale, 0 is no effect, 100 is complete control) ([10]; Preemergence, 500 g ai/ha): 0 | Kochia plant response rating [11, 22]: 0 | Plant response rating, Kochia [11, 23]: 0 | Ragweed plant response rating [12, 22]: 0 | Plant response rating, Ragweed [12, 23]: 0 | Foxtail, Giant plant response rating [13, 22]: 0 | Plant response rating, Foxtail, Giant [13, 23]: 0 | Pigweed plant response rating [14, 22]: 0 | Plant response rating, Pigweed [14, 23]: 0 | Blackgrass plant response rating [15, 22]: 0 | Plant response rating, Blackgrass [15, 23]: 0 | Barnyardgrass plant response rating [16, 22]: 0 | Plant response rating, Barnyardgrass [16, 23]: 0 | Corn plant response rating [17, 22]: 0 | Plant response rating, Corn [17, 23]: 0 | Galium plant response rating [18, 22]: 0 | Plant response rating, Galium [18, 23]: 0 | Wheat plant response rating [19, 22]: 0 | Plant response rating, Wheat [19, 23]: 0 | Ryegrass, Italian plant response rating [20, 22]: 0 | Plant response rating, Ryegrass, Italian [20, 23]: 0

O=C1NCC(c2cc(F)ccc2F)C1C(=O)Nc1ccc(F)cc1F (racemic) [Compound 545]
Plant response rating, Sedge, Umbrella [1]: 0 | Plant response rating, Ducksalad [2]: 0 | Plant response rating, Rice [3]: 0 | Plant response rating, Barnyardgrass [4]: 0 | Plant response rating, Kochia [5, 24]: 0 | Kochia plant response rating (0 to 100 scale, 0 is no effect, 100 is complete control) ([5]; Preemergence, 500 g ai/ha): 0 | Plant response rating, Ragweed [6, 24]: 0 | Ragweed plant response rating (0 to 100 scale, 0 is no effect, 100 is complete control) ([6]; Preemergence, 500 g ai/ha): 0 | Plant response rating, Foxtail, Giant [7, 24]: 80 | Foxtail, Giant plant response rating (0 to 100 scale, 0 is no effect, 100 is complete control) ([7]; Preemergence, 500 g ai/ha): 90 | Plant response rating, Pigweed [8, 24]: 0 | Pigweed plant response rating (0 to 100 scale, 0 is no effect, 100 is complete control) ([8]; Preemergence, 500 g ai/ha): 0 | Plant response rating, Barnyardgrass [9, 24]: 20 | Barnyardgrass plant response rating (0 to 100 scale, 0 is no effect, 100 is complete control) ([9]; Preemergence, 500 g ai/ha): 70 | Plant response rating, Ryegrass, Italian [10, 24]: 0 | Ryegrass, Italian plant response rating (0 to 100 scale, 0 is no effect, 100 is complete control) ([10]; Preemergence, 500 g ai/ha): 0 | Plant response rating, Kochia [11, 25]: 0 | Plant response rating, Kochia [11, 26]: 0 | Plant response rating, Ragweed [12, 25]: 0 | Plant response rating, Ragweed [12, 26]: 0 | Plant response rating, Foxtail, Giant [13, 25]: 0 | Plant response rating, Foxtail, Giant [13, 26]: 70 | Plant response rating, Pigweed [14, 25]: 0 | Plant response rating, Pigweed [14, 26]: 0 | Plant response rating, Blackgrass [15, 25]: 0 | Plant response rating, Blackgrass [15, 26]: 0 | Plant response rating, Barnyardgrass [16, 25]: 0 | Plant response rating, Barnyardgrass [16, 26]: 80 | Plant response rating, Corn [17, 25]: 0 | Plant response rating, Corn [17, 26]: 0 | Plant response rating, Galium [18, 25]: 0 | Plant response rating, Galium [18, 26]: 0 | Plant response rating, Wheat [19, 25]: 0 | Plant response rating, Wheat [19, 26]: 0 | Plant response rating, Ryegrass, Italian [20, 25]: 0 | Plant response rating, Ryegrass, Italian [20, 26]: 0

O=C1NCC(c2ccccc2-c2ccccc2)C1C(=O)Nc1ccccc1F (racemic) [Compound 381]
Plant response rating, Sedge, Umbrella [1]: 0 | Plant response rating, Ducksalad [2]: 0 | Plant response rating, Rice [3]: 0 | Plant response rating, Barnyardgrass [4]: 0 | Plant response rating, Kochia [5, 21]: 0 | Kochia plant response rating (0 to 100 scale) [5, 27]: 0 | Plant response rating, Ragweed [6, 21]: 0 | Ragweed plant response rating (0 to 100 scale) [6, 27]: 0 | Plant response rating, Foxtail, Giant [7, 21]: 0 | Foxtail, Giant plant response rating (0 to 100 scale) [7, 27]: 30 | Plant response rating, Pigweed [8, 21]: 0 | Pigweed plant response rating (0 to 100 scale) [8, 27]: 0 | Plant response rating, Barnyardgrass [9, 21]: 0 | Barnyardgrass plant response rating (0 to 100 scale) [9, 27]: 20 | Plant response rating, Ryegrass, Italian [10, 21]: 0 | Ryegrass, Italian plant response rating (0 to 100 scale) [10, 27]: 0 | Plant response rating, Kochia [11, 23]: 0 | Plant response rating, Kochia [11, 28]: 0 | Plant response rating, Ragweed [12, 23]: 0 | Plant response rating, Ragweed [12, 28]: 0 | Plant response rating, Foxtail, Giant [13, 23]: 20 | Plant response rating, Foxtail, Giant [13, 28]: 0 | Plant response rating, Pigweed [14, 23]: 0 | Plant response rating, Pigweed [14, 28]: 0 | Plant response rating, Blackgrass [15, 23]: 0 | Plant response rating, Blackgrass [15, 28]: 0 | Plant response rating, Barnyardgrass [16, 23]: 30 | Plant response rating, Barnyardgrass [16, 28]: 0 | Plant response rating, Corn [17, 23]: 0 | Plant response rating, Corn [17, 28]: 0 | Plant response rating, Galium [18, 23]: 0 | Plant response rating, Galium [18, 28]: 0 | Plant response rating, Wheat [19, 23]: 0 | Plant response rating, Wheat [19, 28]: 0 | Plant response rating, Ryegrass, Italian [20, 23]: 0 | Plant response rating, Ryegrass, Italian [20, 28]: 0
